From ChEMBL document CHEMBL2074227, “Antiestrogens and steroid hormones: substrates of the human P-glycoprotein” (Biochem Pharmacol, 1994) come the findings set out here.

Chain of ATP-dependent translocase ABCB1 (P08183 whole entry): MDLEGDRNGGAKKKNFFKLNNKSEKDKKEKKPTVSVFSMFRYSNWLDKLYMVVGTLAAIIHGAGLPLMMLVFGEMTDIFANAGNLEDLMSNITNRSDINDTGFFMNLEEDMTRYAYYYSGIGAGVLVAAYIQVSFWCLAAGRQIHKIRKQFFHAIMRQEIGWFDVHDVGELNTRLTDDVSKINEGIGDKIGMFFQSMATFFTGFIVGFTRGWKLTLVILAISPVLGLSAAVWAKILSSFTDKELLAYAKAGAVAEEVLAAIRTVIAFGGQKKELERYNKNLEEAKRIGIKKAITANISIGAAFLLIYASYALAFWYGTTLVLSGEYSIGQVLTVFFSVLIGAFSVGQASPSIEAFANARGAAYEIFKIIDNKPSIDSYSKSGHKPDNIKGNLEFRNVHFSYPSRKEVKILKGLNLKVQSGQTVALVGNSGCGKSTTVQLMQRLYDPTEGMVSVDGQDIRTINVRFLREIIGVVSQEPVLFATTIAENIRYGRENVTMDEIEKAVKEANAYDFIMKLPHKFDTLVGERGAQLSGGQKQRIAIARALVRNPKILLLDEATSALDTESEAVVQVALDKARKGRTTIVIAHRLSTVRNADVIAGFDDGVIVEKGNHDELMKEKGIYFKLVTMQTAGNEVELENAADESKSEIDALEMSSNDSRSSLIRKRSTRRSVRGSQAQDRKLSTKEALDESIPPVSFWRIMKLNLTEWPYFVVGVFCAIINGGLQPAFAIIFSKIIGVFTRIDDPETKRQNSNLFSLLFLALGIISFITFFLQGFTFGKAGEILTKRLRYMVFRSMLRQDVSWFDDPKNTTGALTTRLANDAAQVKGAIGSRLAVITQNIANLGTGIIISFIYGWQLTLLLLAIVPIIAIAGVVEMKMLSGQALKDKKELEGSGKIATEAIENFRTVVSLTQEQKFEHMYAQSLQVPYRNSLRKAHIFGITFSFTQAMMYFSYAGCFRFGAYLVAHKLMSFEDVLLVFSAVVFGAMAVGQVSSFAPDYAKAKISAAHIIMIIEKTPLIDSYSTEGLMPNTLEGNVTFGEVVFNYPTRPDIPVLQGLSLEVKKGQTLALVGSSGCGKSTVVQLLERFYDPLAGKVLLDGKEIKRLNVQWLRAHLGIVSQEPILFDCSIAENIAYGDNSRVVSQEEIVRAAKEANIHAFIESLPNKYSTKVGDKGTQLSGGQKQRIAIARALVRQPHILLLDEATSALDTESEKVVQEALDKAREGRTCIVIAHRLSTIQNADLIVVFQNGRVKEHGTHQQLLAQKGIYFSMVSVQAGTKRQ

The series addresses ATP-dependent translocase ABCB1 (Homo sapiens, UniProt P08183). The series is described as follows: TP_TRANSPORTER: ATP hydrolysis in MDR1-expressing Sf9 cells. The series is classed as functional.
For `CCC(=C(c1ccc(O)cc1)c1ccc(OCCN(C)C)cc1)c1ccccc1`, the Activity result is “substrate [+]”.
The entry for `CCN(CC)CCOc1ccc(C(=C(Cl)c2ccccc2)c2ccccc2)cc1` [CLOMIPHENE] is “substrate [+]”; for `C[C@]12C[C@H](O)[C@H]3[C@@H](CCC4=CC(=O)CC[C@@]43C)[C@@H]1CC[C@@H]2C(=O)CO` [CORTICOSTERONE] it is “substrate [+]”; for `CC/C(=C(\c1ccccc1)c1ccc(OCCN)cc1)c1ccccc1` [DESMETHYL TAMOXIFEN] it is “substrate [+]”.
The result for `CC/C(=C(/CC)c1ccc(O)cc1)c1ccc(O)cc1` [DIETHYLSTILBESTROL] reads “substrate [+]”; that for `CC/C(=C(/c1ccc(OCCN(C)C)cc1)c1cccc(O)c1)c1ccccc1` [DROLOXIFENE], “substrate [+]”.
The entry for `C[C@]12CC[C@@H]3c4ccc(O)cc4CC[C@H]3[C@@H]1CC[C@@H]2O` [ESTRADIOL] is “substrate [+]”; for `COc1ccc2c(c1)CCC(c1ccccc1)=C2c1ccc(OCCN2CCCC2)cc1` [NAFOXIDINE] it is “substrate [+]”; for `CN(C)CCOc1ccc(/C(=C(/CCCl)c2ccccc2)c2ccccc2)cc1` [TOREMIFENE] it is “substrate [+]”.
